The assay deals with T1, PIKfyve (Homo sapiens, UniProt Q9Y2I7).
T1 construct: T7 phage fusion (kinase-tagged phage) or DNA tag for qPCR; made in house; host or cells: E. coli BL21-derived host (T7 phage) for most kinases, HEK-293 for the rest
The assay is described as follows: Kinase binding assay (kinase-tagged T7 phage, affinity beads, qPCR readout), Kd determination. Conditions: 11-point 3-fold dilution series. The method, then: Kinase assays. For most assays, kinase-tagged T7 phage strains were prepared in an E. coli host derived from the BL21 strain. E. coli were grown to log-phase and infected with T7 phage and incubated with shaking at 32° C. until lysis. The lysates were centrifuged and filtered to remove cell debris. The remaining kinases were produced in HEK-293 cells and subsequently tagged with DNA for qPCR detection. Streptavidin-coated magnetic beads were treated with biotinylated small molecule ligands for 30 minutes at room temperature to generate affinity resins for kinase assays. The liganded beads were blocked with excess biotin and washed with blocking buffer (SeaBlock (Pierce), 1% BSA, 0.05% Tween 20, 1 mM DTT) to remove unbound ligand and to reduce non-specific binding. Binding reactions were assembled by combining kinases, liganded affinity beads, and test compounds in 1× binding buffer (20% SeaBlock, 0.17×PBS, 0.05% Tween 20, 6 mM DTT). Test compounds were prepared as 111× stocks in 100% DMSO. Kds were determined using an 11-point 3-fold compound dilution series with three DMSO control points. All compounds for Kd measurements are distributed by acoustic transfer (non-contact dispensing) in 100% DMSO. The compounds were then diluted directly into the assays such that the final concentration of DMSO was 0.9%. All reactions performed in polypropylene 384-well plate. Each was a final volume of 0.02 ml. The assay plates were incubated at room temperature with shaking for 1 hour and the affinity beads were washed with wash buffer (1×PBS, 0.05% Tween 20). The beads were then re-suspended in elution buffer (1×PBS, 0.05% Tween 20, 0.5 μM non-biotinylated affinity ligand) and incubated at room temperature with shaking for 30 minutes. The kinase concentration in the eluates was measured by qPCR.
An 11-point 3-fold serial dilution of each test compound was prepared in 100% DMSO at 100× final test concentration and subsequently diluted to 1× in the assay (final DMSO concentration=1%). Most Kds were determined using a compound top concentration=30,000 nM. If the initial Kd determined was <0.5 nM (the lowest concentration tested), the measurement was repeated with a serial dilution starting at a lower top concentration.
In general terms: In qPCR the cycle at which signal appears reflects the starting amount.

Each structure is given as a SMILES string. Where only a bound is given, the exact number is not on record here.

T1 sequence (Q9Y2I7 whole entry, the tested form may be a part): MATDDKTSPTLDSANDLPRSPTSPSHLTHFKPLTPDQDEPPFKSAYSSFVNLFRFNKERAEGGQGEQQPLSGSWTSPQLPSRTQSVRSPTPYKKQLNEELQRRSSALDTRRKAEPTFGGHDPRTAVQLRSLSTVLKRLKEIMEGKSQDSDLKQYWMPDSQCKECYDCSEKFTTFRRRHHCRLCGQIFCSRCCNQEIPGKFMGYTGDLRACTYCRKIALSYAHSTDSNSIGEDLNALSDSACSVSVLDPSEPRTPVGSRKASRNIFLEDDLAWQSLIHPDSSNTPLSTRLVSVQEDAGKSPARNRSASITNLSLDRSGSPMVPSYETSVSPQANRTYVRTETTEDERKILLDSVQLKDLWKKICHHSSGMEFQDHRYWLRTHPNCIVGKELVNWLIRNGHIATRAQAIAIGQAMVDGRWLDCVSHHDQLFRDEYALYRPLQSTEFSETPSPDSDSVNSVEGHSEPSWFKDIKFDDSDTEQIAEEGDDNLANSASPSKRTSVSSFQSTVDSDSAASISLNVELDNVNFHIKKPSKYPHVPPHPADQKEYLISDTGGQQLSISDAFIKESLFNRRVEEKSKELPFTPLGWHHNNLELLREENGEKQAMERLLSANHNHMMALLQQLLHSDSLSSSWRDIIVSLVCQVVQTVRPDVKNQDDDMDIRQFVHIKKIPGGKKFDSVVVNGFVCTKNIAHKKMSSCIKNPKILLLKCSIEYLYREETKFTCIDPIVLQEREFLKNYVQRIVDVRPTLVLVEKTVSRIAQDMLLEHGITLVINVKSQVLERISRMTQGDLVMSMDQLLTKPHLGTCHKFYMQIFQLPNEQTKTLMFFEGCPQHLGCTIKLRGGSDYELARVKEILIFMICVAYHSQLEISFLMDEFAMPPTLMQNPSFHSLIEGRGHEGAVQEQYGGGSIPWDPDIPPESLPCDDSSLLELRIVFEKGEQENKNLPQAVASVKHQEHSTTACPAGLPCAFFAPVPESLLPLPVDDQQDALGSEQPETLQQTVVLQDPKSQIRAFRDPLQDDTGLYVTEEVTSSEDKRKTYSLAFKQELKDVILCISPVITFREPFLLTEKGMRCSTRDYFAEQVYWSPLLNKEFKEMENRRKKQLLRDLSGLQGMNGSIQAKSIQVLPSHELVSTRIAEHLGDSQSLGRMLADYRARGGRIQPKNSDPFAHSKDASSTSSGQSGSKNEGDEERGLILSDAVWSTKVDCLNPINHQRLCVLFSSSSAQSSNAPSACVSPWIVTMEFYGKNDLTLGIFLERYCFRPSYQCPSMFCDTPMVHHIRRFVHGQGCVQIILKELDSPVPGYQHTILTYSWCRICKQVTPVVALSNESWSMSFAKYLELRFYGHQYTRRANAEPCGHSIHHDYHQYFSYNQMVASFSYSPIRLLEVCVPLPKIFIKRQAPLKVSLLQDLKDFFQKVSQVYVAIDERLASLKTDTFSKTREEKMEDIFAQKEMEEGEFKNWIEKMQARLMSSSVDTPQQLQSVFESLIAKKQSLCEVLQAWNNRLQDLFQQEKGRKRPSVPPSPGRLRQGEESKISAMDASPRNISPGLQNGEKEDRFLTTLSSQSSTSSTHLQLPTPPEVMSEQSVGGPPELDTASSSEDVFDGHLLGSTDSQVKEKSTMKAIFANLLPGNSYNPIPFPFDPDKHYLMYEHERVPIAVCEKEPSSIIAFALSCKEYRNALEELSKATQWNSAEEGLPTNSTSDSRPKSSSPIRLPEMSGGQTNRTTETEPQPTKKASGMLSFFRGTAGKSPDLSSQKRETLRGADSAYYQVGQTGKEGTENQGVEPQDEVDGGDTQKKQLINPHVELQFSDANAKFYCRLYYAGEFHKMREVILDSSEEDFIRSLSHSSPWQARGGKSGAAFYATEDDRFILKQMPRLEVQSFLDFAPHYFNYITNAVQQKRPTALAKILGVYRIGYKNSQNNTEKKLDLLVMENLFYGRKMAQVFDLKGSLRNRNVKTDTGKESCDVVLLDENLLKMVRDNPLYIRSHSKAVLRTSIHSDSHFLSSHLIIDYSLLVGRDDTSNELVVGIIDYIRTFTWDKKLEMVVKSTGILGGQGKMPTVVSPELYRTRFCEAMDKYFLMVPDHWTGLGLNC

For orientation: Kd means the constant that tells how readily two partners part at equilibrium. Read a high Kd as lower affinity. `Cc1cccc(/C=N/Nc2nc3c(c(N4CCOCC4)n2)CCN(S(=O)(=O)c2c(C)n[nH]c2C)C3)c1` [Example 29, 7-[(3,5-dimethyl-1H-pyrazol-4-yl)sulfonyl]-4-morpholino-N-[(E)-m-tolylmethyleneamino]-6,8-dihydro-5H-pyrido[3,4-d]pyrimidin-2-amine] registered a Kd of 5 to 10 nM.
As for `Cc1cccc(-c2cc(O)n(-c3nc(N4CCOCC4)c4sc(-c5ccncc5)cc4n3)n2)c1` [Example 33, 2-[4-morpholino-6-(4-pyridyl)thieno[3,2-d]pyrimidin-2-yl]-5-(m-tolyl)pyrazol-3-ol methane sulfonate], the Kd was at most 1 nM.
The value for `COc1cccc(-c2cc(O)n(-c3nc(N4CCOCC4)c4sc(-c5ccncc5)cc4n3)n2)c1` [Example 34, 5-(3-methoxyphenyl)-2-[4-morpholino-6-(4-pyridyl)thieno[3,2-d]pyrimidin-2-yl]pyrazol-3-ol] was 5 to 10 nM.
The molecule `Cc1cccc(-c2cc(O)n(-c3nc4c(c(N5CCOCC5)n3)CN(S(=O)(=O)c3c(C)noc3C)C4)n2)c1` [Example 37, 2-[6-(3,5-dimethylisoxazol-4-yl)sulfonyl-4-morpholino-5,7-dihydropyrrolo[3,4-d]pyrimidin-2-yl]-5-(m-tolyl)pyrazol-3-ol] registered a dissociation constant (Kd) of 100 to 2000 nM.
The value for `Cc1cccc(-c2cc(O)n(-c3nc4c(c(N5CCOCC5)n3)CN(C(=O)Nc3cccnc3)C4)n2)c1` [Example 38, 2-[5-hydroxy-3-(m-tolyl)pyrazol-1-yl]-4-morpholino-N-(3-pyridyl)-5,7-dihydropyrrolo[3,4-d]pyrimidine-6-carboxamide methane sulfonate] was 5 to 10 nM; that for `Cc1cccc(/C=N/Nc2cc(N3CCOCC3)n3nc(C(=O)NC4COC4)cc3n2)c1` [Example 41, 7-morpholino-5-[(2E)-2-(m-tolylmethylene)hydrazino]-N-(oxetan-3-yl)pyrazolo[1,5-a]pyrimidine-2-carboxamide] was at most 1 nM.
Regarding `Cc1cccc(/C=N/Nc2cc(N3CCOCC3)n3nc(C(=O)NC4CC(F)(F)C4)cc3n2)c1` [Example 42, N-(3,3-difluorocyclobutyl)-7-morpholino-5-[(2E)-2-(m-tolylmethylene)hydrazino]pyrazolo[1,5-a]pyrimidine-2-carboxamide], the Kd lay in the range of 1 to 5 nM.

Source of the values: patent publication US20220168315A1, “COMPOUNDS AND THERAPEUTIC USES THEREOF” (priority 2019, published 2022).
